Data as given in US20070191372A1, “Dna-targeted benzotriazine 1,4-dioxides and their use in cancer therapy” (Auckland Uniservices Limited, priority 2002, published 2007).

What was measured:
[1] = tested on: human colon carcinoma HT-29; experiment: Proliferation assay (IC50) under aerobic and hypoxic conditions, HT-29; type: cell-based; details: for RHT: HT-29, ratio Tirapazamine/test compound under hypoxic conditions; for HCR: HT-29, ratio of IC50 under aerobic and hypoxic conditions; for IC50: Homo sapiens, HT-29, hypoxic (anoxia <0.001% O2), 4 h exposure
Experimental: (§1) Evaluation of the Cytotoxicity of Compounds by Proliferation Assay (IC50) Under Aerobic and Hypoxic Conditions.
(§2) Compounds representative of the invention were evaluated under both aerobic and hypoxic conditions in a proliferation assay (IC50), using two cell lines: human colon carcinoma HT-29, and human cervical carcinoma SiHa.
(§3) Drug exposures were performed in 96-well plates (Nunc) using either a 37° C. humidified incubator (20% O2, 5% CO2) or in the incubator compartment (37° C.) of an anaerobic chamber (Shell Lab) where palladium catalyst scrubbed gas (90% N2, 5% H2, 5% CO2) ensures severe anoxia (<0.001% O2). For each experiment, compounds were simultaneously tested under both oxic and hypoxic conditions against the HT-29 cell line and included TPZ as an independent internal control at the front and back of the assay (n=2). Final data was pooled from a series of seven independent experiments and is calculated using inter-experimental means. In all cases, 8-methyl-5-nitroquinoline was used as a second internal control to confirm that strict hypoxia was present during the experiment. (Siim et al. Br. J. Cancer 1994, 70, 596-603). Cell cultures were grown in αMEM (Gibco) containing 5% heat inactivated FCS and maintained in exponential growth phase. For each individual experiment an appropriate number of cells were seeded (HT-29=1000) into wells in αMEM÷10% FCS+10 mM added glucose+100 μM 2′-deoxycytidine (2′dCyd), and allowed to attach for 3 h. High glucose (final concentration 17 mM) and the presence of 2′-dCyd minimize hypoxia-induced cell cycle arrest. Replicates were then exposed to BTOs, using 2-fold serial dilutions in triplicate, for a further 4 h. Subsequently cells were washed free of compound using complete media (without glucose/2′-dCyd) and allowed to grow for 5 (oxic) or 6 (anoxic) days. Plates were stained as described previously (Wilson et al., J. Med. Chem. 1989, 32, 31-38) and IC50 values determined.
(§4) IC50=The concentration of drug (in micromolar) to reduce viable cell numbers to 50% of those of control cell cultures grown under the same conditions but not exposed to drug
(§5) RHT=Relative hypoxic toxicity is defined as the ratio of concentrations of Tirapazamine/test compound to give equal cell killing under hypoxic conditions.
(§6) HCR=Hypoxic cytotoxicity ratio is defined as the ratio of drug concentrations under aerobic and hypoxic condition to produce equal cell survival (50%) determined by proliferation assay

[2] = tested on: human cervical carcinoma SiHa; experiment: Proliferation assay (IC50) under aerobic and hypoxic conditions, SiHa; type: cell-based; details: for IC50: Homo sapiens, hypoxic, 4 h exposure; for RHT: ratio Tirapazamine/test compound under hypoxic conditions; for HCR: ratio of IC50 under aerobic and hypoxic conditions
Experimental: as §1, §2, §3, §4, §5, §6

murine SCCVII = experiment: Clonogenic assay under aerobic and hypoxic conditions, SCCVII; type: cell-based; details: SCVIII cells; for IC90: Mus musculus, 1 h, hypoxic, 60 min drug exposure, SN (hypoxic), read-out: C10 hypoxic; for HCR: ratio of C10 under aerobic and hypoxic conditions; for RHT: ratio of hypoxic TPZ C10 to hypoxic compound C10
Experimental: (§7) Evaluation of the Cytotoxicity of Compounds by Clonogenic Assay Under Aerobic and Hypoxic Conditions.
(§8) Compounds representative of the invention were evaluated under both aerobic and hypoxic conditions in clonogenic assays, using three cell lines: human colon carcinoma HT-29, murine SCCVII, and human lung adenocarcinoma LXFL. Clonogenic survival was determined using aerobic and hypoxic SCCVII cell suspensions. Drug exposures were performed using continuously stirred and gassed single cell suspensions (10^6 cells/mL) at 37° C., equilibrated with 5% CO2 in air or N2 for 60 min before drug addition. After a 60 min drug exposure cells were washed by centrifugation and plated to determine colony formation Cytotoxicity was measured as the concentration required to reduce plating efficiency to 10% of controls (C10). The hypoxic cytotoxicity ratio (HCR) was determined as the ratio of the C10 values under aerobic and hypoxic conditions. The relative hypoxic toxicity (RHT) was determined as the ratio of hypoxic TPZ C10 to hypoxic BTO C10. Abbreviations used in Table 2 are:
(§9) C10=The concentration of drug (in micromolar) to reduce viable cell numbers to 10% of those of control cell cultures grown under the same conditions but not exposed to drug
as §5
(§10) HCR=Hypoxic cytotoxicity ratio is defined as the ratio of drug concentrations under aerobic and hypoxic condition to produce equal cell survival (10%) determined by clonogenic assay

[3] = tested on: human lung adenocarcinoma LXFL; experiment: Clonogenic assay under aerobic and hypoxic conditions, LXFL; type: cell-based; details: LXFL cells
Experimental: as §7, §8, §9, §5, §10

SMILES	IC50 [1]	IC50 [2]	melting point	IC90 (murine SCCVII)	RHT [1]	HCR [1]	RHT [2]	HCR [2]	HCR (murine SCCVII)	RHT (murine SCCVII)	C10 hypoxic ([3]; hypoxic, 60 min drug exposure)	HCR ([3]; ratio of C10 under aerobic and hypoxic conditions)	RHT ([3]; ratio of hypoxic TPZ C10 to hypoxic compound C10)
Cl.O=C(NCCCNCCCNc1n[n+]([O-])c2ccccc2[n+]1[O-])c1cccc2nc3ccccc3nc12 [Compound 31, N-[3-({3-[(1,4-dioxido-1,2,4-benzotriazin-3-yl)amino]propyl}amino)propyl]-1-phenazinecarboxamide hydrochloride]	356 nM	–	163 to 169 °C	–	163	5.3	–	–	–	–	–	–	–
Cc1ccc2c(c1)[n+]([O-])nc(NCCCN(C)CCCNC(=O)c1cccc3ccc(-c4ccncc4)nc13)[n+]2[O-] [Compound 75, N-[3-(Methyl{3-[(7-methyl-1,4-dioxido-1,2,4-benzotriazin-3-yl)amino]propyl}amino)propyl]-2-(4-pyridinyl)-8-quinolinecarboxamide]	200 nM	70 nM	178 to 180 °C	–	29	92	53	110	–	–	–	–	–
CN(CCCNC(=O)c1cccc2cc3ccccc3nc12)CCCNc1n[n+]([O-])c2ccccc2[n+]1[O-] [Compound 41, N-{3-[{3-[(1,4-Dioxido-1,2,4-benzotriazin-3-yl)amino]propyl}(methyl)amino]propyl}-4-acridinecarboxamide]	43 nM	–	–	800 nM	134	154	–	–	52.5	12.5	0.4 µM	50	37.5
Cc1cccc2nc3c(C(=O)NCCCN(C)CCCNc4n[n+]([O-])c5ccccc5[n+]4[O-])cccc3nc12 [Compound 45, N-{3-[{3-[(1,4-Dioxido-1,2,4-benzotriazin-3-yl)amino]propyl}(methyl)amino]-propyl}-9-methyl-4-phenazinecarboxamide]	18 nM	–	138 to 142 °C	310 nM	321	31	–	–	23.9	29	–	–	–
O=C(NCCOCCNc1n[n+]([O-])c2ccccc2[n+]1[O-])c1cccc2cccnc12 [Compound 24, N-(2-{2-[(1,4-Dioxido-1,2,4-benzotriazin-3-yl)amino]ethoxy}ethyl)-8-quinolinecarboxamide]	–	–	168 to 170 °C	–	–	–	–	–	–	–	–	–	–
Cc1ccc2c(c1)[n+]([O-])nc(NCCCN(C)CCCNC(=O)c1cccc3cc4ccccc4nc13)[n+]2[O-] [Compound 74, N-[3-(Methyl{3-[(7-methyl-1,4-dioxido-1,2,4-benzotriazin-3-yl)amino]propyl}amino)propyl]-4-acridinecarboxamide]	130 nM	–	166 to 168 °C	–	44.7	95	–	–	–	–	–	–	–
Cc1cccc2nc3cccc(C(=O)NCCCNCCCNc4n[n+]([O-])c5ccccc5[n+]4[O-])c3nc12.Cl	–	–	183 to 186 °C	–	–	–	–	–	–	–	–	–	–

Second part, led by results:

IC50 [1]	IC50 [2]	melting point	IC90 (murine SCCVII)	SMILES	RHT [1]	HCR [1]	RHT [2]	HCR [2]	HCR (murine SCCVII)	RHT (murine SCCVII)	C10 hypoxic ([3]; hypoxic, 60 min drug exposure)	HCR ([3]; ratio of C10 under aerobic and hypoxic conditions)	RHT ([3]; ratio of hypoxic TPZ C10 to hypoxic compound C10)
35 nM	10 nM	135 to 140 °C	–	Cc1cccc2cc3cccc(C(=O)NCCNCCNc4n[n+]([O-])c5ccccc5[n+]4[O-])c3nc12 [Compound 103, N-[2-({2-[(1,4-Dioxido-1,2,4-benzotriazin-3-yl)amino]ethyl}amino)ethyl]-5-methyl-4-acridinecarboxamide]	357	83	309	118	–	–	–	–	–
410 nM	–	148 to 152 °C	290 nM	Cc1cccc2cc3cccc(C(=O)NCCN(C)CCNc4n[n+]([O-])c5ccccc5[n+]4[O-])c3nc12 [Compound 99, N-{2-[{2-[(1,4-Dioxido-1,2,4-benzotriazin-3-yl)amino]ethyl}(methyl)amino]ethyl}-5-methyl-4-acridinecarboxamide]	14	25	–	–	176	17.2	–	–	–
490 nM	160 nM	160 to 165 °C	–	O=C(NCCNCCNc1n[n+]([O-])c2ccccc2[n+]1[O-])c1cccc2ccc(-c3ccncc3)nc12 [Compound 102, N-[2-({2-[(1,4-Dioxido-1,2,4-benzotriazin-3-yl)amino]ethyl}amino)ethyl]-2-(4-pyridinyl)-8-quinolinecarboxamide]	12	54	23	53	–	–	–	–	–
135 nM	75 nM	161 to 163 °C	–	Cc1cccc2nc3cccc(C(=O)NCCN(C)CCNc4n[n+]([O-])c5ccccc5[n+]4[O-])c3nc12 [Compound 98, N-{2-[{2-[(1,4-Dioxido-1,2,4-benzotriazin-3-yl)amino]ethyl}(methyl)amino]ethyl}-9-methyl-1-phenazinecarboxamide]	114	45	63	30	–	–	–	–	–
225 nM	105 nM	178 to 180 °C	–	Cc1ccc2c(c1)[n+]([O-])c(NCCCN(C)CCCNC(=O)c1cccc3ccc(-c4ccncc4)nc13)n[n+]2[O-] [Compound 86, N-[3-(Methyl{3-[(6-methyl-1,4-dioxido-1,2,4-benzotriazin-3-yl)amino]propyl}amino)propyl]-2-(4-pyridinyl)-8-quinolinecarboxamide]	66	168	35	136	–	–	–	–	–
–	–	163 to 165 °C	–	CN(CCNC(=O)c1cccc2nc3ccccc3nc12)CCNc1n[n+]([O-])c2ccccc2[n+]1[O-] [Compound 97, N-{2-[{2-[(1,4-Dioxido-1,2,4-benzotriazin-3-yl)amino]ethyl}(methyl)amino]ethyl}-1-phenazinecarboxamide]	–	–	–	–	–	–	–	–	–
–	–	118 to 122 °C	–	Cc1ccc2c(c1)[n+]([O-])nc(NCCCN(C)CCCNC(=O)c1cccc3nc4ccccc4nc13)[n+]2[O-] [Compound 76, N-[3-(Methyl{3-[(7-methyl-1,4-dioxido-1,2,4-benzotriazin-3-yl)amino]propyl}amino)propyl]-1-phenazinecarboxamide]	–	–	–	–	–	–	–	–	–
–	–	111 to 114 °C	–	Cc1ccc2c(c1)[n+]([O-])c(NCCCN(C)CCCNC(=O)c1cccc3nc4ccccc4nc13)n[n+]2[O-] [Compound 87, N-[3-(Methyl{3-[(6-methyl-1,4-dioxido-1,2,4-benzotriazin-3-yl)amino]propyl}amino)propyl]-1-phenazinecarboxamide]	–	–	–	–	–	–	–	–	–
190 nM	100 nM	130 to 135 °C	2300 nM	CN(CCNC(=O)c1cccc2ccc(-c3ccncc3)nc12)CCNc1n[n+]([O-])c2ccccc2[n+]1[O-] [Compound 96, N-{2-[{2-[(1,4-Dioxido-1,2,4-benzotriazin-3-yl)amino]ethyl}(methyl)amino]ethyl}-2-(4-pyridinyl)-8-quinolinecarboxamide]	31	77	37	78	65	3.9	–	–	–
